Experimental data from patent US20250235460A1, “COMBINATION THERAPY USING GLUCOSE-DEPENDENT INSULINOTROPIC POLYPEPTIDE RECEPTOR ANTAGONIST COMPOUNDS AND GLP-1 RECEPTOR AGONIST COMPOUNDS” (Pfizer Inc., priority 2024, published 2025).

Experiments:
[1] = molecular target: human GLP-1R (Homo sapiens, UniProt P43220, G168S); assay: CHO GLP-1R Clone H6 cAMP HTRF agonist assay (Assay 1, high receptor density); type: cell-based; conditions: for EC50: CHO GLP-1R clone H6, cAMP HTRF, geometric mean; for Emax: CHO GLP-1R clone H6, arithmetic mean, relative to saturating GLP-1 (1 μM), read-out: Assay 1 Emax (%)
human GLP-1R (Homo sapiens, UniProt P43220, G168S), sequence (P43220 24-463 G168S): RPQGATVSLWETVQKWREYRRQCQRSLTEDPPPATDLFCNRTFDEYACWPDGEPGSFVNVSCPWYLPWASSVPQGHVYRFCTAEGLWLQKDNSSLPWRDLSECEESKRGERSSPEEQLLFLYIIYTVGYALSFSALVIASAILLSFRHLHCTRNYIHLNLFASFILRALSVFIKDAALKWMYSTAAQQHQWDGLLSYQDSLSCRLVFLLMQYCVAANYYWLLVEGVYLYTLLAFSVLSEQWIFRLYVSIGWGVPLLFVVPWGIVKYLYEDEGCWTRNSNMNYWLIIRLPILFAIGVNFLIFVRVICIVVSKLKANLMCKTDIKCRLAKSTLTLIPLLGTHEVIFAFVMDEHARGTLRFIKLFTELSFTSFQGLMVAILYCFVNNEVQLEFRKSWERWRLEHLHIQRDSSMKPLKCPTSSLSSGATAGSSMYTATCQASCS
Procedure, shortened: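 Two significant figures are used throughout. Each EC50 is the geometric mean of its replicates, and each Emax is the arithmetic mean.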

[2] = molecular target: human GLP-1R (Homo sapiens, UniProt P43220, L260F); assay: CHO GLP-1R Clone C6 cAMP HTRF agonist assay (Assay 2, low receptor density); type: cell-based; conditions: for EC50: CHO GLP-1R clone C6, cAMP HTRF, geometric mean
human GLP-1R (Homo sapiens, UniProt P43220, L260F), sequence (P43220 24-463 L260F): as the sequence (P43220 24-463 G168S) above, with S145G, L237F counted along it
Source text: In Table 5 and Table 6, assay data are presented to two (2) significant figures as the geometric mean (EC50s) and arithmetic mean (Emax) based on the number of replicates listed (Number). A blank cell means there was no data for that Example or the Emax was not calculated.

[3] = CHO GLP-1R clone C6, arithmetic mean, relative to saturating GLP-1 (1 μM)

Compound | EC50 [1] | Emax [1] | EC50 [2] | Emax [2, 3] | Assay 2 Emax (%) [2, 3]
C[C@H]1CN(c2ccc(F)c(OCc3ccc(F)cc3F)n2)CCN1Cc1nc2ccc(C(=O)O)cc2n1C[C@@H]1CCO1 [Compound 133B, 2-{[(2S)-4-{6-[(2,4-difluorobenzyl)oxy]-5-fluoropyridin-2-yl}-2-methylpiperazin-1-yl]methyl}-1-[(2S)-oxetan-2-ylmethyl]-1H-benzimidazole-6-carboxylic acid] | 190 nM | 91% | 1400 nM | 47% | 
O=C(O)c1ccc2nc(CN3CCC(c4cccc(OCc5ccc(Cl)cc5F)n4)CC3)n(C[C@@H]3CCO3)c2c1 [Compound 107B, 2-[(4-{6-[(4-chloro-2-fluorobenzyl)oxy]pyridin-2-yl}piperidin-1-yl)methyl]-1-[(2S)-oxetan-2-ylmethyl]-1H-benzimidazole-6-carboxylic acid] | 81 nM | 77% | 910 nM | 94% | 
COCCN1CCC(Cn2c(CN3CCC(c4cccc(OCc5ccc(Cl)cc5F)n4)CC3)nc3ccc(C(=O)O)cc32)CC1 [Compound 287B, 2-[(4-{6-[(4-chloro-2-fluorobenzyl)oxy]pyridin-2-yl}piperidin-1-yl)methyl]-1-{[1-(2-methoxyethyl)piperidin-4-yl]methyl}-1H-benzimidazole-6-carboxylic acid] | 28 nM | 80% | 450 nM | 89% | 
N#Cc1ccc(COc2cccc(N3CCN(Cc4nc5ccc(C(=O)O)cc5n4Cc4ncco4)CC3)n2)c(F)c1 [Compound 140B, 2-[(4-{6-[(4-cyano-2-fluorobenzyl)oxy]pyridin-2-yl}piperazin-1-yl)methyl]-1-(1,3-oxazol-2-ylmethyl)-1H-benzimidazole-6-carboxylic acid] | 36 nM | 84% | 150 nM | 92% | 
O=C(O)c1ccc2nc(CN3CCC(c4cccc(OCc5ccc(F)cc5F)n4)CC3)n(Cc3ncco3)c2c1 [Compound 149B, 2-[(4-{6-[(2,4-difluorobenzyl)oxy]pyridin-2-yl}piperidin-1-yl)methyl]-1-(1,3-oxazol-2-ylmethyl)-1H-benzimidazole-6-carboxylic acid] | 770 nM | 78% | > 15000 nM | 100% | 
O=C(O)c1ccc2nc(CN3CCC(c4cccc(OCc5ccc(Cl)cc5F)n4)CC3)n(CCC(F)(F)F)c2c1 [Compound 346B, 2-[(4-{6-[(4-chloro-2-fluorobenzyl)oxy]pyridin-2-yl}piperidin-1-yl)methyl]-1-(3,3,3-trifluoropropyl)-1H-benzimidazole-6-carboxylic acid] | 21 nM | 79% | 540 nM |  | 
COCCn1cnnc1Cn1c(CN2CCC(c3cccc(OCc4ccc(Cl)cc4F)n3)CC2)nc2ccc(C(=O)O)cc21 [Compound 294B, 2-[(4-{6-[(4-chloro-2-fluorobenzyl)oxy]pyridin-2-yl}piperidin-1-yl)methyl]-1-{[4-(2-methoxyethyl)-4H-1,2,4-triazol-3-yl]methyl}-1H-benzimidazole-6-carboxylic acid] | 72 nM | 76% | 1500 nM | 81% | 
CCc1nc(Cn2c(CN3CCC(c4cccc(OCc5ccc(Cl)cc5F)n4)CC3)nc3ccc(C(=O)O)cc32)no1 [Compound 263B, 2-[(4-{6-[(4-chloro-2-fluorobenzyl)oxy]pyridin-2-yl}piperidin-1-yl)methyl]-1-[(5-ethyl-1,2,4-oxadiazol-3-yl)methyl]-1H-benzimidazole-6-carboxylic acid] | 33 nM | 80% | 670 nM | 110% | 
C[C@H]1CN(c2cccc(OCc3ccc(C#N)cc3)n2)CCN1Cc1nc2ccc(C(=O)O)cc2n1C[C@@H]1CCO1 [Compound 261B, 2-{[(2S)-4-{6-[(4-cyanobenzyl)oxy]pyridin-2-yl}-2-methylpiperazin-1-yl]methyl}-1-[(2S)-oxetan-2-ylmethyl]-1H-benzimidazole-6-carboxylic acid] |  | 100% |  |  | 120%
N#Cc1ccc(COc2cccc(C3CCN(Cc4nc5ccc(C(=O)O)cc5n4C[C@H]4CCCO4)CC3)n2)cc1 [Compound 132B, 2-[(4-{6-[(4-cyanobenzyl)oxy]pyridin-2-yl}piperidin-1-yl)methyl]-1-[(2R)-tetrahydrofuran-2-ylmethyl]-1H-benzimidazole-6-carboxylic acid] | 70 nM | 80% | 1800 nM | 85% | 

Other lines, results leading:

EC50 [1] | Emax [1] | EC50 [2] | Emax [2, 3] | Assay 2 Emax (%) [2, 3] | Compound
0.7 nM | 86% | 10 nM | 89% |  | Cc1cc(Cn2c(CN3CCC(c4cccc(OCc5ccc(Cl)cc5F)n4)CC3)nc3ccc(C(=O)O)cc32)[nH]n1 [Compound 333B, 2-[(4-{6-[(4-chloro-2-fluorobenzyl)oxy]pyridin-2-yl}piperidin-1-yl)methyl]-1-[(3-methyl-1H-pyrazol-5-yl)methyl]-1H-benzimidazole-6-carboxylic acid]
14 nM | 80% | 270 nM | 92% |  | CC(C)c1cc(Cn2c(CN3CCC(c4cccc(OCc5ccc(Cl)cc5F)n4)CC3)nc3ccc(C(=O)O)cc32)on1 [Compound 281B, 2-[(4-{6-[(4-chloro-2-fluorobenzyl)oxy]pyridin-2-yl}piperidin-1-yl)methyl]-1-{[3-(propan-2-yl)-1,2-oxazol-5-yl]methyl}-1H-benzimidazole-6-carboxylic acid]
4.9 nM | 77% | 75 nM | 83% |  | N#Cc1ccc(COc2nc(C3CCN(Cc4nc5ccc(C(=O)O)cc5n4C[C@@H]4CCO4)CC3)ccc2F)cc1 [Compound 127B, 2-[(4-{6-[(4-cyanobenzyl)oxy]-5-fluoropyridin-2-yl}piperidin-1-yl)methyl]-1-[(2S)-oxetan-2-ylmethyl]-1H-benzimidazole-6-carboxylic acid]
3.2 nM | 77% | 43 nM | 84% |  | COCCn1c(CN2CCN(c3cccc(OCc4ccc(Cl)cc4F)n3)[C@H](C)C2)nc2ccc(C(=O)O)cc21 [Compound 184B, 2-{[(3R)-4-{6-[(4-chloro-2-fluorobenzyl)oxy]pyridin-2-yl}-3-methylpiperazin-1-yl]methyl}-1-(2-methoxyethyl)-1H-benzimidazole-6-carboxylic acid]
5.7 nM | 67% | 100 nM | 79% |  | COCCn1c(CN2CCC(c3cccc(OCc4ccc(Cl)cc4F)n3)CC2)nc2cnc(C(=O)O)cc21 [Compound 205B, 2-[(4-{6-[(4-chloro-2-fluorobenzyl)oxy]pyridin-2-yl}piperidin-1-yl)methyl]-1-(2-methoxyethyl)-1H-imidazo[4,5-c]pyridine-6-carboxylic acid]
1.7 nM | 82% | 41 nM | 99% |  | COCCn1c(CN2CCC(c3cccc(OCc4ccc(Cl)cc4F)n3)CC2)nc2ncc(C(=O)O)c(C)c21 [Compound 208B, 2-[(4-{6-[(4-chloro-2-fluorobenzyl)oxy]pyridin-2-yl}piperidin-1-yl)methyl]-1-(2-methoxyethyl)-7-methyl-1H-imidazo[4,5-b]pyridine-6-carboxylic acid]
1.1 nM | 79% | 13 nM | 100% |  | N#Cc1ccc(COc2cccc(C3CCN(Cc4nc5ccc(C(=O)O)cc5n4Cc4ccon4)CC3)n2)c(F)c1 [Compound 161B, 2-[(4-{6-[(4-cyano-2-fluorobenzyl)oxy]pyridin-2-yl}piperidin-1-yl)methyl]-1-(1,2-oxazol-3-ylmethyl)-1H-benzimidazole-6-carboxylic acid]
0.3 nM |  | 4.1 nM | 100% |  | COCCn1c(CN2CC[C@H](c3cccc(OCc4ccc(Cl)cc4F)n3)[C@@H](C)C2)nc2ccc(C(=O)O)cc21 (racemic) [Compound 193B, rac-2-{[(3S,4R)-4-{6-[(4-chloro-2-fluorobenzyl)oxy]pyridin-2-yl}-3-methylpiperidin-1-yl]methyl}-1-(2-methoxyethyl)-1H-benzimidazole-6-carboxylic acid]
0.3 nM | 93% | 3.8 nM | 93% |  | COCCn1c(CN2CCC(c3cccc(OCc4cc(F)c(Cl)cc4F)n3)CC2)nc2ccc(C(=O)O)cc21 [Compound 219B, 2-((4-(6-((4-chloro-2,5-difluorobenzyl)oxy)pyridin-2-yl)piperidin-1-yl)methyl)-1-(2-methoxyethyl)-1H-benzo[d]imidazole-6-carboxylic acid]
4.2 nM | 69% | 77 nM | 75% |  | COCCn1c(CN2CC[C@@H](c3cccc(OCc4ccc(Cl)cc4F)n3)C[C@H]2C)nc2ccc(C(=O)O)cc21 (relative stereo) [Compound 358B, cis 2-{[4-{6-[(4-Chloro-2-fluorobenzyl)oxy]pyridin-2-yl}-2-methylpiperidin-1-yl]methyl}-1-(2-methoxyethyl)-1H-benzimidazole-6-carboxylic acid]
8.1 nM | 74% | 220 nM | 93% |  | COC[C@@H]1C[C@H]1Cn1c(CN2CCC(c3cccc(OCc4ccc(Cl)cc4F)n3)CC2)nc2ccc(C(=O)O)cc21 [Compound 197B, 2-[(4-{6-[(4-chloro-2-fluorobenzyl)oxy]pyridin-2-yl}piperidin-1-yl)methyl]-1-{[(1R,2R)-2-(methoxymethyl)cyclopropyl]methyl}-1H-benzimidazole-6-carboxylic acid]
3.4 nM | 86% | 23 nM | 110% |  | Cn1c(CN2CCC(c3cccc(OCc4ccccc4)n3)CC2)nc2ccc(C(=O)O)cc21 [Compound 221B, 2-((4-(6-(Benzyloxy)pyridin-2-yl)piperidin-1-yl)methyl)-1-methyl-1H-benzo[d]imidazole-6-carboxylic acid]
